Data as given in ChEMBL document CHEMBL1124767, “Synthesis, pharmacological effects, and conformation of 4,4-disubstituted 1,4-dihydropyridines” (J Med Chem, 1990).
In brackets after ≈: the same amount, converted by molar mass.

What was measured:
Canis familiaris = experiment: In vivo antihypertensive activity against anaesthetized dogs after intravenous administration of specified threshold dose; assay type: functional, Canis lupus familiaris
Oryctolagus cuniculus = species on record: Oryctolagus cuniculus; experiment: Evaluated in vitro for the inhibition of KCl-induced contraction of isolated rabbit aorta rings.; assay type: functional

Structure (SMILES)	Dose (Canis familiaris) [mg/kg]	IC50 (Oryctolagus cuniculus) [µg/mL]
COC(=O)C1=C(C)NC(C)=C(C(=O)OC)C1c1ccccc1	0.05	0.04 (≈ 0.133 µM)
CCC1(c2ccccc2)C(C(=O)OC)=C(C)N=C(C)/C1=C(/O)OC (stereo unspecified)		3.6 (≈ 10.9 µM)
COC(=O)C1=C(C)N=C(C)/C(=C(/O)OC)C1(C)c1cccc([N+](=O)[O-])c1 (stereo unspecified)	0.3	2.3 (≈ 6.38 µM)
COC(=O)C1=C(C)N=C(C)/C(=C(/O)OC)C1(C)c1ccccc1 (stereo unspecified)	3	1.2 (≈ 3.81 µM)
CCOC(=O)C1=C(C)N=C(C)/C(=C(/O)OCC)C1(C)c1cccnc1 (stereo unspecified)	3	9 (≈ 26.1 µM)
CCOC(=O)C1=C(C)N=C(C)/C(=C(/O)OCC)C1c1cccnc1 (stereo unspecified)	0.3	0.5 (≈ 1.51 µM)
